On this data set, the source says:
In further embodiments, the propofol concentration is from about 0.01 wt.-% to about 80 wt.-%, or from about 0.1 wt-% to about 50 wt.-%, or from about 1 wt.-% to about 20 wt.-%, or from about 2 wt.-% to about 20 wt.-%, respectively. In further embodiments, the strength is about 1 wt.-% or higher, such as about 2 wt.-%, 5 wt.-%, 10 wt.-%, 20 wt.-%, or 25 wt.-%.

Molecules are shown by their SMILES.

On to `CC(C)c1cccc(C(C)C)c1O` [propofol, 2,6-di(propan-2-yl)phenol], for which the “propofol concentration possible in SFA solutions” value (SFA solutions) was “up to 960 mg/mL”. Besides, the “miscibility with SFA's” value (in most SFA's including F4H5, F6H6 and F6H8) is “freely miscible”.

Values taken from patent US8796340B2, “Pharmaceutical composition comprising propofol” (Novaliq GmbH, priority 2009, dated 2014).
